In patent US6133294A (priority 1999, dated 2000):

What was measured:
Type in all cases: in vivo
Puccinia recondita = experiment: Brown rust (Puccinia recondita--PUCCRT); conditions: wheat (cultivar Monon), 100 ppm spray to run off, inoculated after 24 hours; for pest or weed control at 100 ppm: Puccinia recondita, 1DP, read-out: control of plant disease, PUCCRT 1DP
Description: (§1) Compound Formulation: Compound formulation was accomplished by dissolving technical materials in acetone, with serial dilutions then made in acetone to obtain desired rates. Final treatment volumes were obtained by adding nine volumes 0.05% aqueous Tween-20 or Triton X-100, depending upon the pathogen.
(§2) Brown rust (Puccinia recondita--PUCCRT): Wheat (cultivar Monon) was grown from seed in a soilless peat-based potting mixture (Metromix) until the seedlings were 1-2). These plants were then sprayed to run off with the test compound at a rate of 100 ppm. After 24 hours the test plants were inoculated with an aqueous spore suspension of Puccinia recondita. The plants were then transferred to the greenhouse until disease developed on the untreated control plants.
(§3) the following table presents the activity of typical compounds of the present invention when evaluated in these experiments. The effectiveness of the test compounds in controlling disease was rated using the following scale: […]

Erysiphe graminis = experiment: Powdery Mildew of Wheat (Erysiphe graminis--ERYSGT); conditions: wheat (cultivar Monon), 100 ppm spray to run off, inoculated after 24 hours; for pest or weed control at 100 ppm: Blumeria graminis, 1DP, read-out: control of plant disease, ERYSGT 1DP
Description: as §1
Powdery Mildew of Wheat (Erysiphe graminis--ERYSGT): Wheat (cultivar Monon) was grown in a soilless peat-based potting mixture (Metromix) until the seedlings were 1-2 leaf (BBCH 12). These plants were then sprayed to run off with the test compound at a rate of 100 ppm. After 24 hours the test plants were inoculated with Erysiphe graminis by dusting spores from stock plants onto the test plants. The plants were then transferred to the greenhouse until disease developed on the untreated control plants.
as §3

Leptosphaeria nodorum = experiment: Glume blotch of wheat (Leptosphaeria nodorum--LEPTNO); conditions: wheat (cultivar Monon), 100 ppm spray to run off, inoculated after 24 hours; for pest or weed control at 100 ppm: Parastagonospora nodorum, 1DP, read-out: control of plant disease, LEPTNO 1DP
Description: as §1
as §2, with “Glume blotch of wheat (Leptosphaeria nodorum--LEPTNO):” for “Brown rust (Puccinia recondita--PUCCRT):”, “1-2 leaf (BBCH 12).” for “1-2).”, “Leptosphaeria nodorum.” for “Puccinia recondita.”
as §3

Phytophthora infestans = experiment: whole plant or invertebrate; conditions: for pest or weed control at 100 ppm: Phytophthora infestans, 24 h, read-out: control of plant disease, PHYTIN 1DP

Compound: CNC(=O)C(=NOC)c1ccccc1COc1ncc(-c2nc(C(C)(C)C)no2)cc1C [Example 60]
- pest or weed control at 100 ppm (Puccinia recondita): 75 to 100%
- pest or weed control at 100 ppm (Erysiphe graminis): 75 to 100%
- pest or weed control at 100 ppm (Leptosphaeria nodorum): 75 to 100%

Compound: CNC(=O)C(=NOC)c1ccccc1COc1ccc(-c2cc(C)on2)cn1 [Example 45]
- pest or weed control at 100 ppm (Phytophthora infestans): 25 to 74%

Compound: CNC(=O)C(=NOC)c1ccccc1COc1cccc(-c2nc(C(C)(C)C)no2)n1 [Example 84]
- pest or weed control at 100 ppm (Puccinia recondita): 75 to 100%
- pest or weed control at 100 ppm (Erysiphe graminis): 25 to 74%
- pest or weed control at 100 ppm (Phytophthora infestans): 75 to 100%
- pest or weed control at 100 ppm (Leptosphaeria nodorum): 75 to 100%

Compound: CNC(=O)C(=NOC)c1ccc(C)cc1COc1ncc(-c2noc(C(F)(F)F)n2)cc1Cl [Example 33]
- control of plant disease, PUCCRT 1DP (Puccinia recondita): ++ (75-100% control of plant disease)
- control of plant disease, ERYSGT 1DP (Erysiphe graminis): ++ (75-100% control of plant disease)
- control of plant disease, PHYTIN 1DP (Phytophthora infestans; tomatoes (cultivar Rutgers), 100 ppm spray to run off, inoculated after 24 hours, 1DP): ++ (75-100% control of plant disease)
- control of plant disease, LEPTNO 1DP (Leptosphaeria nodorum): ++ (75-100% control of plant disease)

Compound: CNC(=O)C(=NOC)c1ccccc1COc1ncc(-c2nnc(-c3ccccc3)o2)cc1Cl [Example 2]
- pest or weed control at 100 ppm (Puccinia recondita): 75 to 100%
- pest or weed control at 100 ppm (Erysiphe graminis): 25 to 74%
- pest or weed control at 100 ppm (Phytophthora infestans): 75 to 100%
- pest or weed control at 100 ppm (Leptosphaeria nodorum): 75 to 100%

Compound: CNC(=O)C(=NOC)c1ccccc1COc1ncc(-c2noc(COC)n2)cc1Cl [Example 23]
- pest or weed control at 100 ppm (Puccinia recondita): 75 to 100%
- pest or weed control at 100 ppm (Erysiphe graminis): 75 to 100%
- pest or weed control at 100 ppm (Phytophthora infestans): 0 to 24%
- pest or weed control at 100 ppm (Leptosphaeria nodorum): 25 to 74%

Compound: CNC(=O)C(=NOC)c1ccccc1COc1ncc(-c2nc(CC(C)C)no2)cc1Cl [Example 77]
- pest or weed control at 100 ppm (Puccinia recondita): 75 to 100%
- pest or weed control at 100 ppm (Erysiphe graminis): 75 to 100%
- pest or weed control at 100 ppm (Phytophthora infestans): 0 to 24%
- pest or weed control at 100 ppm (Leptosphaeria nodorum): 75 to 100%

Compound: CNC(=O)C(=NOC)c1ccccc1COc1cccc(-c2nc(C(C)C)no2)n1 [Example 87]
- pest or weed control at 100 ppm (Puccinia recondita): 75 to 100%
- pest or weed control at 100 ppm (Erysiphe graminis): 75 to 100%
- pest or weed control at 100 ppm (Phytophthora infestans): 75 to 100%
- pest or weed control at 100 ppm (Leptosphaeria nodorum): 75 to 100%

Compound: CNC(=O)C(=NOC)c1ccccc1COc1ccc(-c2nc(C(C)(C)C)no2)cn1 [Example 65]
- pest or weed control at 100 ppm (Puccinia recondita): 75 to 100%
- pest or weed control at 100 ppm (Erysiphe graminis): 75 to 100%
- pest or weed control at 100 ppm (Phytophthora infestans): 0 to 24%
- pest or weed control at 100 ppm (Leptosphaeria nodorum): 75 to 100%

Compound: CCc1nnc(-c2cnc(OCc3ccccc3C(=NOC)C(=O)NC)c(Cl)c2)o1 [Example 5]
- pest or weed control at 100 ppm (Puccinia recondita): 75 to 100%
- pest or weed control at 100 ppm (Erysiphe graminis): 75 to 100%
- pest or weed control at 100 ppm (Phytophthora infestans): 75 to 100%
- pest or weed control at 100 ppm (Leptosphaeria nodorum): 75 to 100%

Compound: CNC(=O)C(=NOC)c1ccccc1COc1ncc(-c2nc(COc3ccccc3)no2)cc1Cl [Example 57]
- pest or weed control at 100 ppm (Puccinia recondita): 75 to 100%
- pest or weed control at 100 ppm (Erysiphe graminis): 75 to 100%
- pest or weed control at 100 ppm (Leptosphaeria nodorum): 25 to 74%

Compound: CNC(=O)C(=NOC)c1ccccc1COc1ncc(-c2cc(C)no2)cc1Cl [Example 79]
- pest or weed control at 100 ppm (Phytophthora infestans): 0 to 24%

Compound: CCc1cc(-c2ccc(OCc3ccccc3C(=NOC)C(=O)NC)nc2)on1 [Example 80]
- pest or weed control at 100 ppm (Phytophthora infestans): 0 to 24%

Compound: CNC(=O)C(=NOC)c1ccccc1COc1ncc(-c2nc(CSC)no2)cc1Cl [Example 62]
- pest or weed control at 100 ppm (Puccinia recondita): 75 to 100%
- pest or weed control at 100 ppm (Erysiphe graminis): 75 to 100%
- pest or weed control at 100 ppm (Leptosphaeria nodorum): 75 to 100%

Compound: CNC(=O)C(=NOC)c1ccccc1COc1ncc(-c2nc(COC)no2)cc1Cl [Example 61]
- pest or weed control at 100 ppm (Puccinia recondita): 75 to 100%
- pest or weed control at 100 ppm (Erysiphe graminis): 75 to 100%
- pest or weed control at 100 ppm (Leptosphaeria nodorum): 0 to 24%

Compound: CNC(=O)C(=NOC)c1ccccc1COc1ncc(-c2nc(C(C)C)no2)cc1Cl [Example 59]
- pest or weed control at 100 ppm (Puccinia recondita): 75 to 100%
- pest or weed control at 100 ppm (Erysiphe graminis): 75 to 100%
- pest or weed control at 100 ppm (Leptosphaeria nodorum): 75 to 100%

Compound: CNC(=O)C(=NOC)c1ccccc1COc1ncc(-c2nc(CSc3ccccc3)no2)cc1Cl [Example 58]
- pest or weed control at 100 ppm (Puccinia recondita): 75 to 100%
- pest or weed control at 100 ppm (Erysiphe graminis): 75 to 100%
- pest or weed control at 100 ppm (Leptosphaeria nodorum): 75 to 100%

Compound: CCc1noc(-c2ccc(OCc3ccccc3C(=NOC)C(=O)NC)nc2)n1 [Example 63]
- pest or weed control at 100 ppm (Puccinia recondita): 75 to 100%
- pest or weed control at 100 ppm (Erysiphe graminis): 75 to 100%
- pest or weed control at 100 ppm (Leptosphaeria nodorum): 25 to 74%

Compound: CNC(=O)C(=NOC)c1ccccc1COc1ccc(-c2cc(-c3ccccc3)on2)cn1 [Example 44]
- pest or weed control at 100 ppm (Phytophthora infestans): 0 to 24%
